The target of the test is T1, MUTE_ACTL (Arabidopsis thaliana, UniProt Q9M8K6).
T1 construct: MUTE-ACTL (114-202); made in house; host or cells: E. coli BL21
Description: BLI direct binding. Also noted: species or system A. thaliana. Conditions: for binding to MUTE by BLI (in words): BLI (Supplementary Table 3); for Kd: MUTE_ACTL. The source says:
A. thaliana SCRM (1-494), ΔNSPCH (98-364), MUTE (1-202), ΔNFAMA (190-414), MUTEΔC (1-114), MUTER133A_R134A, MUTEE162A_E163A, MUTER133A_R134A_E162A_E163A, SCRM-ACTL (405-494), MUTE-ACTL (114-202), SPCH-ACTL (285-364), FAMA-ACTL (306-414), MUTE_ACTLR133A_R134A, MUTE_ACTLE162A_E163A, MUTE_ACTLR133A_R134A_E162A_E163A were cloned into pGEX-4T-1 vector with an N-terminal GST tag and a thrombin cleavage sequence. For protein expression, the constructs were transformed into E. coli strain BL21. For each transformant, a single colony was selected and incubated in 10 ml LB liquid media. The overnight-incubated E. coli suspensions were transferred to 1 L LB medium and incubated at 37 °C for around 2 h until the OD600 reached 0.4–0.6. The isopropyl β-D-1-thiogalactopyranoside ([…] of final concentration) was added to the cultures and the strains were incubated at 22 °C for a further 18 h. GST-fused proteins were purified using glutathione agarose resin. The soluble portion of the cell lysate was loaded onto a GST-Sepharose column. Nonspecifically bound proteins were removed by washing the column with 20 mM Tris pH 8.0, 200 mM NaCl. The bound GST-fused protein was eluted with 10 mm glutathione and 20 mM Tris pH 8.0, 200 mM NaCl. The GST-fused proteins were exchanged with phosphate-buffered saline buffer, and then the solution was treated with 50 μg of thrombin for 10–12 h at 16 ^οC. The GST portion of the protein was cleaved during thrombin digestion, and then the whole solution was reloaded onto the glutathione S-transferase column to obtain pure protein. The purified proteins were further purified by gel filtration on a Superdex-200 (GE) column using fast protein liquid chromatography and phosphate buffer (pH 7.2) as the eluent. The purity of the protein was checked by SDS-PAGE. For detailed lists of oligo DNA and plasmid information, see Supplementary Tables 5, 6, respectively.
The binding affinities of SCRM to MUTE / MUTER133A_R134A / MUTEE162A_E163A / MUTER133A_R134A_E162A_E163A in presence and absence of Stomidazolone (3) and its analogues (AYSJ1059 (5) and AYSJ1061 (6)), and Stomidazolone / AYSJ1059 / AYSJ1061 interactions with GST-tagged SCRM, MUTE, SPCH, FAMA, MUTE ΔACTL, MUTE_ACTL, SCRM_ACTL, SPCH_ACTL and FAMA_ACTL, MUTER133A_134A, MUTEE162A_E163A, MUTER133A_R134A_E162A_E163A were measured using the Octet Red96 system (ForteBio, Pall Life Sciences) following the manufacturer’s protocols. The optical probes coated with anti-GST were first loaded with 500 nM GST tagged proteins before kinetic binding analyses. The experiment was performed in 96-well plates maintained at 30 °C. Each well was loaded with 200 μL reaction volume for the experiment. The binding buffer used in these experiments contained 1× PBS supplemented with 2% DMSO, 0.02% Tween20. […] There was no binding of the analytes to the unloaded probes as shown by the control wells. Binding kinetics to all seven concentrations of the analytes were measured simultaneously using default parameters on the instrument. The data were analyzed using the Octet data analysis software. The association and dissociation curves were fit with the 1:1 homogeneous ligand model. The kobs (observed rate constant) values were used to calculate Kd, with steady-state analysis of the direct binding. See Supplementary Table 3 for details.

[1] abbreviates: BLI steady state, read-out: KD (SS).

Where two headings read alike, the source gives them in different places.

T1 sequence (Q9M8K6 114-202): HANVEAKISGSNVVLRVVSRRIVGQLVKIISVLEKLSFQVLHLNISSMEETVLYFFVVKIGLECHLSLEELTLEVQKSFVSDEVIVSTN

For the compound `Cc1ccc(C2(NS(=O)(=O)c3ccccc3)N=C(c3ccccc3)C(=O)N2S(=O)(=O)c2ccccc2)cc1` (stereo not drawn) [AYSJ1059], the “binding to MUTE by BLI (in words)” value is recorded as “substantially weak binding”. Also, the Kd under setting [1] came to 126 ± 13.5 µM. Moreover, where the note is “BLI, read-out: KD”, the dissociation constant (Kd) worked out at 123 ± 6.5 µM.

Consider `O=C1C(c2ccccc2)=NC(NS(=O)(=O)c2ccccc2)(c2ccc(Br)cc2)N1S(=O)(=O)c1ccccc1` (stereo not drawn) [AYSJ1061], for which the “binding to MUTE by BLI (in words)” value is recorded as “substantially weak binding”. Moreover, the dissociation constant Kd under setting [1] turned out to be 139 ± 9.5 µM. The dissociation constant Kd (BLI, read-out: KD) is 135 ± 5.5 µM.

Values taken from PMC11500415, “Chemical inhibition of stomatal differentiation by perturbation of the master-regulatory bHLH heterodimer via an ACT-Like domain” (Nature Communications, 2024).
